The results in this text go back to ChEMBL document CHEMBL2311273, “Discovery of potent, selective multidrug and toxin extrusion transporter 1 (MATE1, SLC47A1) inhibitors through prescription drug profiling and computational modeling” (J Med Chem, 2013).

Common to all, as to assay type: cell-based
In data set [1] the target is T1, MATE1 (multidrug and toxin extrusion protein 1) (Homo sapiens, UniProt Q96FL8).
T1 sequence (Q96FL8 whole entry): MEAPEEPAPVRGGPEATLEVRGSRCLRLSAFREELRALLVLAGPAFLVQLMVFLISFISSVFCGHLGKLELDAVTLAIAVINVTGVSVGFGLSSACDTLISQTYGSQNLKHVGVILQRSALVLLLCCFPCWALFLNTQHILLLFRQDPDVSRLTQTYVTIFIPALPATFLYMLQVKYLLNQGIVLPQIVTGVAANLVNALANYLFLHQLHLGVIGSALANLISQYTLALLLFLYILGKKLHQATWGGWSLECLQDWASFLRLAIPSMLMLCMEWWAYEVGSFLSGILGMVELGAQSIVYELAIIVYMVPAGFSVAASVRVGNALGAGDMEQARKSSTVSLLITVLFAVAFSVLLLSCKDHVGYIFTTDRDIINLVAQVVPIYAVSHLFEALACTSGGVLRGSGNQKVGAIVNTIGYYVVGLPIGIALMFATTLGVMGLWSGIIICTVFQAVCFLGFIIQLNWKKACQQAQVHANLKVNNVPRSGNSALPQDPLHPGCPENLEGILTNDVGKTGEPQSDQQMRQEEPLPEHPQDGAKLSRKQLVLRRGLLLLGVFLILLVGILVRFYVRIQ
Description: (§1) Inhibition of human MATE1-mediated ASP+ uptake expressed in HEK293 cells at 20 uM after 1.5 mins by fluorescence assay. The conditions noted are these: HEK293 cells expressing human MATE1, probe ASP+.

Data set [2] has as its target T2, Multidrug and toxin extrusion protein 1 (Homo sapiens, UniProt Q96FL8).
T2 sequence (Q96FL8 whole entry): T1 sequence (Q96FL8 whole entry)
Description: Inhibition of human MATE1-mediated ASP+ uptake expressed in HEK293 cells after 1.5 mins by fluorescence assay.

Data set [3] addresses T3, Solute carrier family 22 member 2 (Homo sapiens, UniProt O15244).
T3 sequence (O15244 whole entry): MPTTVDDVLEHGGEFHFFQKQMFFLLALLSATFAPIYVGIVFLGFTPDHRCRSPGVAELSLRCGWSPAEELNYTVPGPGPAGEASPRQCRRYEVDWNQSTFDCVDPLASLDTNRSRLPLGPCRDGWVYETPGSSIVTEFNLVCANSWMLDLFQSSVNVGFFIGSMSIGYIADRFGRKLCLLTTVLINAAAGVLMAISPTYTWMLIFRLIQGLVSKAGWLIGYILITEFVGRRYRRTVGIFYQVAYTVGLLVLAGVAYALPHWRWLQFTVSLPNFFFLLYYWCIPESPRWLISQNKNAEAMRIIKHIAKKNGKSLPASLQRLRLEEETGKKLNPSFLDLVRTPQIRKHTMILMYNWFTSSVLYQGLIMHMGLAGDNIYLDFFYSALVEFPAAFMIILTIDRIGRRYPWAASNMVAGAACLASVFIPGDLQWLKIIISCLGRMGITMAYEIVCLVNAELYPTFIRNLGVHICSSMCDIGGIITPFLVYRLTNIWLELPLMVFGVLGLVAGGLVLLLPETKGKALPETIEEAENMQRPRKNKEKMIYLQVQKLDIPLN
Description: Inhibition of human OCT2-mediated ASP+ uptake expressed in HEK293 cells after 3 mins by fluorescence assay.

For data set [4], the target named is T4, Multidrug and toxin extrusion protein 2 (Homo sapiens, UniProt Q86VL8).
T4 sequence (Q86VL8 whole entry): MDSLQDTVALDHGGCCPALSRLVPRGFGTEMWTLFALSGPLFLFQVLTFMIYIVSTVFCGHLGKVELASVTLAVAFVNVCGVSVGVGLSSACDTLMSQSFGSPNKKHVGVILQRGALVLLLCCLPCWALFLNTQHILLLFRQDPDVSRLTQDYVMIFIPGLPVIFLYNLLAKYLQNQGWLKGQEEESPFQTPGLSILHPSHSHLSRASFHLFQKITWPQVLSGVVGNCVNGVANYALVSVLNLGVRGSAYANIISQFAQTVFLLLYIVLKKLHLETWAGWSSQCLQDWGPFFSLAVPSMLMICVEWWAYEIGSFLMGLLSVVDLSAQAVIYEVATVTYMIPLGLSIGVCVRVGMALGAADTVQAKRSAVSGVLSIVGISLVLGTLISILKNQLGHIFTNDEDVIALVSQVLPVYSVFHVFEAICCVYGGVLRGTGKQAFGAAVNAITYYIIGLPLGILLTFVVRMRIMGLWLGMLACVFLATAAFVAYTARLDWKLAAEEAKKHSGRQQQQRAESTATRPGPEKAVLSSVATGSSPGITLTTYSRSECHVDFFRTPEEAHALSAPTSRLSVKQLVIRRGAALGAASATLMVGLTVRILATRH
Description: Inhibition of human MATE2K-mediated ASP+ uptake expressed in HEK293 cells after 1.5 mins by fluorescence assay.

For data set [5], the target named is T2, Multidrug and toxin extrusion protein 1. The data set is described as §1. The conditions noted are these: hek293, […], 20 µM.

What is called inhibition is how much of the control response was suppressed. By IC50 is commonly meant the concentration that inhibits the measured activity by half. Low values mean greater potency, high ones weaker potency. On to `CCCc1nc2c(C)cc(-c3nc4ccccc4n3C)cc2n1Cc1ccc(-c2ccccc2C(=O)O)cc1`, for which the inhibition at […], 20 µM in data set [1] was determined as 38%. In data set [2], the 50% inhibitory concentration (IC50) amounted to 17.9 µM.
The matching figures for `CNS(=O)(=O)Cc1ccc2[nH]cc(CCN(C)C)c2c1`: 7% and 6.7 µM.
As to `CCOC(=O)[C@H](CCc1ccccc1)N[C@@H](C)C(=O)N1CCC[C@H]1C(=O)O`, the inhibition at […], 20 µM in data set [1] was 23%. This compound gave an IC50 in data set [2] of more than 500 µM.
Consider `COc1ccc(CCN2CCC(Nc3nc4ccccc4n3Cc3ccc(F)cc3)CC2)cc1` [ASTEMIZOLE], for which the inhibition at […], 20 µM in data set [1] stood at 34%. The IC50 in data set [2] was found to be 26.4 µM.
In turn, `Nc1ncn([C@@H]2O[C@H](CO)[C@@H](O)[C@H]2O)c(=O)n1` [AZACITIDINE] gave an inhibition at […], 20 µM in data set [1] of 50%.
Take `O=C1CC2(CCCC2)CC(=O)N1CCCCN1CCN(c2ncccn2)CC1` [BUSPIRONE]: the 50% inhibitory concentration (IC50) in data set [3] was 12 µM; in data set [4], 46 µM.
Take `CN(C)C(=O)COC(=O)Cc1ccc(OC(=O)c2ccc(NC(=N)N)cc2)cc1` [CAMOSTAT]: the values for the IC50 in data set [3] and in data set [4] were 16.5 µM and 12.7 µM, respectively. Further, in data set [5], the INH was found to be 77%.
Take `Cc1cc(C2CCCCC2)n(O)c(=O)c1` [CICLOPIROX]: in data set [1], the inhibition at […], 20 µM was found to be 52%. The IC50 in data set [2] was more than 500 µM.
The matching figures for `Clc1cccc(Cl)c1N=C1NCCN1` [CLONIDINE]: 1% and 33.3 µM.
On to `C[C@]12CCC(=O)C=C1CC[C@@H]1[C@@H]2C(=O)C[C@@]2(C)[C@H]1CC[C@]2(O)C(=O)CO` [CORTISONE], for which the inhibition at […], 20 µM in data set [1] came out at 10%.
Turning to `[H]/N=C(/N)c1ccc(NCc2nc3cc(C(=O)N(CCC(=O)O)c4ccccn4)ccc3n2C)cc1` [DABIGATRAN], the IC50 in data set [3] stood at 4.7 µM; in data set [2] it was 8.1 µM; in data set [4] it was 25.3 µM.
Regarding `C[C@@H]1C[C@H]2[C@@H]3CCC4=CC(=O)C=C[C@]4(C)[C@@]3(F)[C@@H](O)C[C@]2(C)[C@@]1(O)C(=O)CO` [DEXAMETHASONE], the inhibition at […], 20 µM in data set [1] was 30%. This compound gave an IC50 in data set [2] of more than 500 µM.
On to `CN1C[C@H](C(=O)N[C@]2(C)O[C@@]3(O)[C@@H]4CCCN4C(=O)[C@H](Cc4ccccc4)N3C2=O)C[C@@H]2c3cccc4[nH]cc(c34)C[C@H]21` [DIHYDROERGOTAMINE], for which the half-inhibitory concentration (IC50) is 49.9 µM in data set [3], 2.8 µM in data set [2] and 12.6 µM in data set [4]. In data set [5], this compound gave an INH of 72%.
For the compound `O=c1[nH]c2ccccc2n1CCCN1CCC(n2c(=O)[nH]c3cc(Cl)ccc32)CC1` [DOMPERIDONE], the values for the IC50 in data set [3] and in data set [4] were 7.9 µM and 14.8 µM, respectively. Moreover, in data set [5], the INH stood at 66%.
With `NC1=NCC2c3ccccc3Cc3ccccc3N12` (stereo not given) [EPINASTINE], the IC50 turned out to be 4.3 µM in data set [3], 1.1 µM in data set [2] and 29.8 µM in data set [4]. In data set [5], this compound came in with an INH of 97%.
`CC[C@H]1OC(=O)[C@H](C)[C@@H](O[C@H]2C[C@@](C)(OC)[C@@H](O)[C@H](C)O2)[C@H](C)[C@@H](O[C@@H]2O[C@H](C)C[C@H](N(C)C)[C@H]2O)[C@](C)(O)C[C@@H](C)C(=O)[C@H](C)[C@@H](O)[C@]1(C)O` [ERYTHROMYCIN]: the IC50 in data set [2] is more than 500 µM.
Consider `C#C[C@]1(O)CC[C@H]2[C@@H]3CCc4cc(O)ccc4[C@H]3CC[C@@]21C` [ETHINYL ESTRADIOL], for which the IC50 in data set [3] worked out at 2.2 µM; in data set [2], 21.1 µM; in data set [4] it was 20.2 µM. Also, the INH in data set [5] is given as 60%.
Take `CCOC(=O)c1ccc(OC(=O)CCCCCNC(=N)N)cc1` [GABEXATE]: the half-inhibitory concentration (IC50) in data set [3] was 0.9 µM; in data set [2] it was 0.5 µM; in data set [4], 10.8 µM. The inhibition at […], 20 µM in data set [1] was found to be 96%.
As for `CN1C2CCCC1CC(NC(=O)c1nn(C)c3ccccc13)C2` (stereo not given) [GRANISETRON], the IC50 in data set [3] was determined as 4.3 µM; in data set [4], 311 µM. In addition, the INH in data set [5] is reported as 67%.
Compound `COc1ccc2c(c1)c(CC(=O)O)c(C)n2C(=O)c1ccc(Cl)cc1` [INDOMETHACIN] came in with an inhibition at […], 20 µM in data set [1] of 6%.
The same measure, in the same setting: with `CCCCC1=NC2(CCCC2)C(=O)N1Cc1ccc(-c2ccccc2-c2nnn[nH]2)cc1` [IRBESARTAN] the figure was 15%; with `CCCCc1nc(Cl)c(CO)n1Cc1ccc(-c2ccccc2-c2nn[nH]n2)cc1` [LOSARTAN], 12%.
For `O=C(O)c1cccnc1` [NIACIN], the inhibition at […], 20 µM in data set [1] was 54%.
The same measure, in the same setting: with `CCOc1ccc(NC(C)=O)cc1` [PHENACETIN] the figure was 53%.
As for `O=c1[nH]c2ccccc2n1C1CCN(CCCC(c2ccc(F)cc2)c2ccc(F)cc2)CC1` [PIMOZIDE], the IC50 in data set [3] is 34.2 µM; in data set [4] it was more than 500 µM.
As to `COc1cc2nc(N3CCN(C(=O)c4ccco4)CC3)nc(N)c2cc1OC` [PRAZOSIN], in data set [4], the 50% inhibitory concentration (IC50) turned out to be 38.4 µM.
In turn, `C=C[C@H]1C[N@@]2CC[C@H]1C[C@@H]2[C@@H](O)c1ccnc2ccc(OC)cc12` [QUINIDINE] showed an inhibition at […], 20 µM in data set [1] of 28%.
The same measure, in the same setting: with `CNC(=C[N+](=O)[O-])NCCSCc1ccc(CN(C)C)o1` [RANITIDINE] the figure was 29%.
As to `CC(N)C12CC3CC(CC(C3)C1)C2` (stereo not given) [RIMANTADINE], the concentration for half-maximal inhibition (IC50) in data set [3] came out at 4.4 µM; in data set [2], 7.3 µM; in data set [4], 288 µM. The same compound displayed an INH in data set [5] of 74%.
With `CC(=O)S[C@@H]1CC2=CC(=O)CC[C@]2(C)[C@H]2CC[C@@]3(C)[C@@H](CC[C@@]34CCC(=O)O4)[C@H]12` [SPIRONOLACTONE], the inhibition at […], 20 µM in data set [1] stood at 27%. In addition, half-maximal inhibition in data set [2] (IC50) required 18.6 µM.
As to `c1ccc2[nH]c(-c3cscn3)nc2c1` [THIABENDAZOLE], the inhibition at […], 20 µM in data set [1] was found to be 55%. This compound returned an IC50 in data set [2] of more than 500 µM.
Regarding `CC[C@@]1(O)C(=O)OCc2c1cc1n(c2=O)Cc2cc3c(CN(C)C)c(O)ccc3nc2-1` [TOPOTECAN], the IC50 in data set [3] is 61 µM; in data set [2], 1.3 µM; in data set [4], 8.6 µM. Moreover, the INH in data set [5] came to 50%.
For `COc1cc2c3cc1Oc1cc(ccc1O)C[C@@H]1c4c(cc(OC)c(O)c4Oc4ccc(cc4)C[C@@H]3N(C)CC2)CC[N+]1(C)C` [TUBOCURARINE], the results for the IC50 in data set [3], in data set [2] and in data set [4] were 78.8 µM, 9.4 µM and 55.5 µM, respectively. For the same compound, in data set [5], the INH came out at 95%.
For `CC(=O)O[C@H]1C[C@@H]2CC[C@@H]3[C@H](CC[C@@]4(C)[C@H]3C[C@H]([N+]3(C)CCCCC3)[C@@H]4OC(C)=O)[C@@]2(C)C[C@@H]1N1CCCCC1.[Br-]` [VECURONIUM BROMIDE], in that order: 3.5 µM, 1.9 µM, 25.2 µM and 85%.
With `COc1cc(C(=O)NS(=O)(=O)c2ccccc2C)ccc1Cc1cn(C)c2ccc(NC(=O)OC3CCCC3)cc12` [ZAFIRLUKAST], the IC50 in data set [3] was 9.7 µM; in data set [4], 7.6 µM. The compound further showed an INH in data set [5] of 52%.
